How the values were obtained:
[1] = tested on: pollakiuria model rats induced by acetic acid; assay: Suppression of increase in urinary frequency in rats induced by acetic acid; type: in vivo, rat; settings: awake rats; 10 mg/kg orally; dosed 2 days after 1% acetic acid into bladder; frequency within 6 hours
Description: (ii) Experiment of Suppression of an Increase in Urinary Frequency in Rats Induced by Acetic Acid
Abdomen of a rat was subjected to a midline incision under anesthetization with pentobarbital (50 mg/kg, i.p.) and bladder was exposed. Urine in the bladder was removed using a syringe equipped with an intraocular injection needle (30 G×¾). After that, 0.5 ml of 1% acetic acid solution was injected into the bladder using a syringe equipped with an intraocular injection needle (30 G×¾) and injury was closed.
With regard to measurement of urination of the animal, the animal was placed in a metabolism cage and urination was recorded with the lapse of time using a urination measuring apparatus (K. K. Neuroscience).
When acetic acid was injected into bladder of rat, urination frequency increased continuously and pollakiuria where each urinated amount decreased was induced. Each of the test drugs was evaluated using the stimulated bladder.
Evaluation of the test drug was conducted in such a manner that the test drug was administered after 2 days from injection of acetic acid into the bladder and suppressing rates for the frequency increased within 6 hours thereafter was compared. Suppressing rate (%) of frequency by each compound was determined by the following formula. […]

[2] = tested on: pollakiuria model rats induced by sulprostone; assay: Suppression of increase in urinary frequency of rats induced by sulprostone; type: in vivo, rat; settings: awake rats

## Cc1cc(Cl)ccc1S(=O)(=O)NC[C@H]1C2CCC(CC2)[C@@H]1/C=C\CCCC(=O)O [(1), 6-[(2S,3S)-3-(4-chloro-2-methylphenylsulfonyl-aminomethyl)bicyclo[2.2.2]octan-2-yl]-5Z-hexenoic acid]
[1]
  Inhibiting Rate (%) for Urinary Frequency, Acetic Acid-Induced Pollakiuria Model: 44.3 ± 12.4 %
[2]; 10 mg/kg orally, sulprostone 200 μg/kg s.c. 30 minutes later, frequency over 3 hours
  Inhibiting Rate (%) for Urinary Frequency, Sulprostone-Induced Pollakiuria Model: 58.0 ± 12.0 %

## Cl.O=C(CCc1ccncc1)NNC(=O)N1Cc2ccccc2Oc2ccc(Cl)cc21 [(2), 8-chlorodibenz[b,f][1.4]oxazepine-10(11H)-carboxylic acid.2-[1-oxo-3-(4-pyridinyl)propyl]hydrazide.monohydrochloride]
[2]; 10 mg/kg subcutaneously, frequency over 3 hours after sulprostone
  Inhibiting Rate (%) for Urinary Frequency, Sulprostone-Induced Pollakiuria Model: 38.2 ± 4.6 %

## CCN(Cc1cc(Cl)ccc1OCC(C)C)c1ccc(C(=O)NS(=O)(=O)c2c(C)noc2C)nn1 [(3), N-(3,5-dimethylisoxazol-4-ylsulfonyl)6-[N-(5-chloro-2-(isobutyloxy)benzyl)-N-ethylamino]pyridazine-3-carboxamide]
[2]; 3 mg/kg subcutaneously, frequency over 3 hours after sulprostone
  Inhibiting Rate (%) for Urinary Frequency, Sulprostone-Induced Pollakiuria Model: 49.2 ± 2.8 %
